# How the values were obtained:
# [1] = system: relapsed or refractory diffuse large B-cell lymphoma; assay: Clinical trial of lenalidomide vs control in relapsed or refractory DLBCL patients, subtype determined by NanoString; assay type: in vivo, human; details: for Median overall survival / Median progression free survival: relapsed or refractory DLBCL patients
# Source text: DLBCL lymph-node biopsies were formalin fixed and paraffin embedded (FFPE) similarly to that described in Scott et al., Blood 2014 123(8) 1214-1217, the disclosure of which is incorporated by reference herein. Nucleic acids obtained from the tissues were extracted using the QIAGEN AllPrep DNA/RNA FFPE Kit, with deparaffinization achieved using the QIAGEN Deparaffinization Solution, according to the manufacturer's instructions. The RNA was quantitated using spectrophotometry (NanoDrop, Thermo Science, DE). Gene expression on approximately 200 nanograms of RNA was used to determine gene expression levels by means of NanoString technology (NanoString Technologies, WA). The total RNA was hybridized to the custom codesets at 65° C. overnight. The reaction was processed on the nCounter™ Prep Station and gene expression data was then acquired on the nCounter™ Digital Analyzer.
# (§1) This clinical benefit is observed when subtype is determined by the Affymetrix test (FIG. 1) or by the NanoString test (FIG. 2).
# [2] = system: relapsed or refractory diffuse large B-cell lymphoma; assay: Clinical trial of lenalidomide vs control in relapsed or refractory DLBCL patients, subtype determined by Affymetrix; assay type: in vivo, human; details: for Median overall survival / Median progression free survival: relapsed or refractory DLBCL patients
# Source text: DLBCL lymph-node biopsies were either snap frozen or formalin fixed and paraffin embedded similarly to that described by Scott et al., Blood 2014 123(8) 1214-1217, the disclosure of which is incorporated herein in its entirety. Messenger RNA was purified and reverse transcribed into cDNA.
# DNA microarray analysis of gene expression was done essentially as described below. The cDNA clones on the Lymphochip microarray are available from Research Genetics. Fluorescent images of hybridized microarrays were obtained using a GenePix 4000 microarray scanner (Axon Instruments). Images were analysed with ScanAlyze (M. Eisen; http://www.microarrays.org/software), and fluorescence ratios (along with numerous quality control parameters; see ScanAlyze manual) were stored in a custom database. Single spots or areas of the array with obvious blemishes were flagged and excluded from subsequent analyses. Fluorescence ratios were calibrated independently for each array by applying a single scaling factor to all fluorescent ratios from each array; this scaling factor was computed so that the median fluorescence ratio of well-measured spots on each array was 1.0.
# All cDNA microarray analyses were performed using poly-(A)^+ mRNA (Fast Track, Invitrogen). In each experiment, fluorescent cDNA probes were prepared from an experimental mRNA sample (Cy5-labelled) and a control mRNA sample (Cy3-labelled) isolated from a pool of nine lymphoma cell lines (Raji, Jurkat, L428, OCI-Ly3, OCI-Ly8, OCI-Lyl, SUDHL5, SUDHL6 and WSU1). The use of a common control cDNA probe allows the relative expression of each gene to be compared across all samples.
# All non-flagged array elements for which the fluorescent intensity in each channel was greater than 1.4 times the local background were considered well measured. The ratio values were log-transformed (base 2) and stored in a table (rows, individual cDNA clones; columns, single mRNA samples). Data for the genes were centered by subtracting (in log space) the median observed value, to remove any effect of the amount of RNA in the reference pool. This dataset contains 4,026 array elements. Hierarchical clustering was applied to both axes using the weighted pair-group method with centroid average as implemented in the program Cluster (M. Eisen; http://www.microarrays.org/software). The distance matrixes used were Pearson correlation for clustering the arrays and the inner product of vectors normalized to magnitude 1 for the genes. The results were analysed with Tree View (M. Eisen; http://www.microarrays.org/software).
# as §1
# [3] = ABC plus unclassified subtype (by Nanostring)
# [4] = ABC plus unclassified subtype (by Affymetrix)
structure (smiles),measurement,setting,value
"Nc1cccc2c1CN(C1CCC(=O)NC1=O)C2=O (centres unmarked) [lenalidomide, 3-(4-amino-1-oxoisoindolin-2-yl)piperidine-2,6-dione]",Clinical benefit compared to control as measured by progression free survival,"[1]; ABC DLBCL subtype patients and unclassifiable patients, subtype by NanoString test (FIG. 2)",benefit
same,Median overall survival,[1]; [3],36.9/108.4 weeks
same,Median progression free survival,[1]; [3],6.6/82 weeks
same,Median overall survival,[1]; ABC subtype (by Nanostring),37/43.7 weeks
same,Median progression free survival,[1]; ABC subtype (by Nanostring),6/27 weeks
same,Median overall survival,[1]; GBC subtype (by Nanostring),34.9/18 weeks
same,Median progression free survival,[1]; GBC subtype (by Nanostring),9/8.7 weeks
same,Clinical benefit compared to control as measured by progression free survival,"[2]; ABC DLBCL subtype patients and unclassifiable patients, subtype by Affymetrix test (FIG. 1)",benefit
same,Median overall survival,[2]; [4],16.3/33^ weeks
same,Median progression free survival,[2]; [4],6.3/9.1 weeks
same,Median overall survival,[2]; ABC subtype (by Affymetrix),18.6/108.4 weeks
same,Median progression free survival,[2]; ABC subtype (by Affymetrix),6.2/82 weeks
same,Median overall survival,[2]; GBC subtype (by Affymetrix),20/30 weeks
same,Median progression free survival,[2]; GBC subtype (by Affymetrix),7.1/13.2 weeks

# From patent US20170157103A1, “METHODS OF TREATING DIFFUSE LARGE B-CELL LYMPHOMA USING 3-(4-AMINO-1-OXOISOINDOLIN-2-YL)PIPERIDINE-2,6-DIONE” (Celgene Corporation, priority 2015, published 2017)
